Results taken from patent publication US12384825B2, “Monomeric peptide multi-agonist targeting the GLP1 receptor and NPY receptors” (Syracuse University, priority 2019, dated 2025).
“Also recorded” adds a separate entry of the source. Where no end group is shown, it is not given here. [ ]: non-standard residue; d: D form. Lys(N3) = [N-]=[N+]=NCCCC[C@H](N)C(=O)O

Columns and labels:
[1] = molecular target: T1, human NPY2-R (Homo sapiens, UniProt P49146); assay: FRET assay at Y2-R, mitigation of adenosine stimulated cAMP at the A2b receptor (EPAC2/H188, HEK293); type: cell-based
T1 construct: host or cells: HEK293 (H188 FRET reporter)
T1 sequence (P49146 1-381): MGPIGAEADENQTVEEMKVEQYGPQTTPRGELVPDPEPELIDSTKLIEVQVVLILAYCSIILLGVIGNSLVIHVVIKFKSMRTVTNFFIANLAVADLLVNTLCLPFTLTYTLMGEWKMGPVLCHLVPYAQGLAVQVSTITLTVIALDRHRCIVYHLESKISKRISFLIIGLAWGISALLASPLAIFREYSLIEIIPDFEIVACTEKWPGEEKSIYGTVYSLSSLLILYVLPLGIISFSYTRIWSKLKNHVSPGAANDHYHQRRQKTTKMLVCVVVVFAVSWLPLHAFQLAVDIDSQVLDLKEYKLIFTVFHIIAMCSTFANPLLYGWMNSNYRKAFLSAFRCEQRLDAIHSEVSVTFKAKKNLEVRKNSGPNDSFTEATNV

[2] = molecular target: T2, human NPY1-R (Homo sapiens, UniProt P25929); assay: FRET assay at Y1-R, mitigation of adenosine stimulated cAMP at the A2b receptor (EPAC2/H188, HEK293); type: cell-based; conditions: cells expressing Y1-R, partial antagonist
T2 construct: host or cells: HEK293 (H188 FRET reporter)
T2 sequence (P25929 1-384): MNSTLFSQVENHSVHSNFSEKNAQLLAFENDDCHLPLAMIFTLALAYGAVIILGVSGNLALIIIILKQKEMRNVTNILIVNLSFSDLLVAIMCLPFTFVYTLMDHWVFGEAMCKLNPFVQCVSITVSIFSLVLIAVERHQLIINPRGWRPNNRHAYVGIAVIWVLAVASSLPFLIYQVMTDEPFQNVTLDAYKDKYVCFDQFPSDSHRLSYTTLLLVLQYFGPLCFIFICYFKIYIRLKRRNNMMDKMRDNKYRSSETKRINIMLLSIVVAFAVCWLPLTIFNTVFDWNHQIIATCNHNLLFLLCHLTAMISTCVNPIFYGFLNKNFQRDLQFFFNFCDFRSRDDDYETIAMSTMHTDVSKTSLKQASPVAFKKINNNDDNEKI

[3] = molecular target: human GLP-1R (Homo sapiens, UniProt P43220); assay: FRET reporter assay tracking cAMP stimulation at the GLP-1R (EPAC2/H188 sensor, HEK293 cells); type: cell-based; conditions: FIG. 7
Chain of human GLP-1R (P43220 24-463): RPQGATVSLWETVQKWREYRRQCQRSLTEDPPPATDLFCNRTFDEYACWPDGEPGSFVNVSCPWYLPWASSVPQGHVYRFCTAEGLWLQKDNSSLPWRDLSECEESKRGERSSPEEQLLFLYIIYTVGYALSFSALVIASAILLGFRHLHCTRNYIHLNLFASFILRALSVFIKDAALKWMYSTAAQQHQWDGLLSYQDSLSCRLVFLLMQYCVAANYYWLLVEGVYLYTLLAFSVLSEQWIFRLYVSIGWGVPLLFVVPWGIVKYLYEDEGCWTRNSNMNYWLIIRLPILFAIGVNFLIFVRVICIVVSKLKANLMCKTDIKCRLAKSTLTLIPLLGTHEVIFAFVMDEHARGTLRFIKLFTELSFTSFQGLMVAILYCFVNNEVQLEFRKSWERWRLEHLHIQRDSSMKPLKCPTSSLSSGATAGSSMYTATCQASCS

[4] = Dose escalation study, food intake in rats; type: in vivo, rat
Description: Dose Escalation Study. Lean Sprague Dawley rats (350 g) were individually housed in cages capable of recording food intake (Accuscan Diet cages). The animal room was maintained on a 12-h light/12-hour dark cycle. The study design consisted of sequential rounds of a 2-day baseline phase, a 2-day treatment phase, and a 2-day washout phase. Body weight was assessed daily just prior to the start of the dark cycle, food and kaolin intake were available ad libitum and consumption was continuously recorded. Treatment doses were administered just prior to the start of the dark cycle via subcutaneous injection.

[5] = Intraperitoneal glucose tolerance testing after 5-d treatment in rats; type: in vivo, rat; conditions: 10 nmol/kg, pre-diabetic (DIO) rats
Description: DIO Sprague Dawley rats (803.0±102.7 g n=7) were administered a pre-treatment IPGTT with a vehicle injection. Animals were grouped based on body weight, Lee Index (a measure of adiposity; lee index=weight1/3/nasoanal length), and baseline IPGTT blood glucose excursion. […] On treatment day 5, a repeat IPGTT was performed with the assigned treatment. All weights noted are mean±Std. Dev. Metabolic testing. Intraperitoneal glucose tolerance testing (IPGTT) was performed following a 6-h fast such that the glucose bolus occurred at the start of the dark cycle; all animal handling is performed under red light. […] A second baseline sample was obtained 30 minutes later, immediately prior to the dextrose bolus (1.5 g/kg dextrose, 20% solution). Additional blood glucose measurements were taken 7, 15, 30, 45, 60, and 120 minutes post-bolus. All blood glucose measurements were made via handheld glucometers (One Touch Ultra) in duplicate; if the variation between the two measures was >5%, a third measurement was taken.

[6] = 5-day treatment in diet-induced obese (DIO) rats; type: in vivo, rat; conditions: diet-induced obese Sprague-Dawley rats, 10 nmol/kg once daily, 5 d
Description: Diet Induced Obese (DIO) rats. To generate DIO rats, young (4-wk of age) lean male Sprague Dawley rats (Charles River Laboratories, Inc. Wilmington, MA; strain code 001) were placed on a high fat diet (HFD; D12492, 60% kcal from fat, Research Diets, New Brunswick, NJ) for 4-5 months prior to the start of the experiments to attain >20% of body fat. During this time, animals had ad libitum access to food and water.
5-day Treatment in DIO rats. DIO Sprague Dawley rats (2 cohorts; 826.1 g n=9, and 642.3 g n=5) were individually housed and the animal room was maintained on a 12-h light/12-hour dark cycle. During the 5-day baseline phase, animals were administered vehicle (0.9% sterile saline solution, injectable) injections just prior to the start of the dark cycle. At the end of the baseline phase, animals were grouped based on body weight, average daily body weight gain, and food intake. […] Throughout the experiment, body weight and food intake (via hopper weighs) were assessed daily just prior to the start of the dark cycle. Fasting blood glucose was tested prior to the baseline phase and at the end of the treatment phase via handheld glucometer (One Tough Ultra).

[7] = tested on: rat islets; assay: Insulin secretion rate in rat islet cell perifusion, exposure and washout; type: cell-based
[8] = tested on: rat pancreatic islets; assay: Static glucose stimulated insulin secretion (GSIS) in rat islets; type: cell-based; conditions: 10 mM glucose, 50 nM peptides
Description: Rat islet isolation and culture. Islets were harvested from Sprague-Dawley rats (approximately 250 g; Charles River) and anesthetized by intraperitoneal injection of pentobarbital sodium (150 mg/kg rat). Islets were prepared and purified as described^56. Islets were then cultured for 18 h in a 37° C., 5% CO2 incubator prior to the experiments in RPMI medium supplemented with 10% heat inactivated fetal bovine serum (Invitrogen). Static measurement of ISR. ISR was determined statically with multiple conditions, as described previously^57. Briefly, islets were handpicked into a petri dish containing KRB, 0.1% BSA, and 3 mM glucose and incubated at 37° C., 5% CO2 for 60 min. Subsequently, islets were picked into wells of 96-well plates containing desired amounts of glucose and agents as indicated and incubated for an additional 60 min. At the end of this period, supernatant was assayed for insulin.

[9] = tested on: perifused isolated rat islets; assay: Cytokine-induced damage of perifused isolated rat islets (OCR, membrane permeability); type: cell-based; conditions: cytokines IFN-γ, TNF-α, IL-1β
Description: For this evaluation, a customized perifusion system was used that both maintains islet health while continuously assessing β-cell viability by OCR.

[10] = IPGTT in shrews; type: in vivo, shrew
[11] = tested on: human islets; assay: Insulin release in human islets; type: cell-based

Molecule | block of GEP44 agonism by antagonist at Y2-R ([1]; FRET, cells expressing Y2-R, potent antagonist) | block of GEP44 agonism by antagonist at Y1-R [2] | signalling via the GLP-1R, cAMP production [3] | signalling via the Y2-R, cAMP production ([1]; FIG. 7) | 2-d avg. FI ([4]; 10 nmol/kg/d, rats) [%] | reduction in food intake over 2 days ([4]; 20 nmol/kg daily, lean Sprague-Dawley rats) [%] | 2-d avg. FI ([4]; 30 nmol/kg/d, rats) [%] | reductions in FI ([4]; preliminary dose escalation studies, dose not stated) [%] | food intake (in words) ([4]; rats, dose escalation, 2-d on each dose) | blood glucose during intraperitoneal glucose tolerance testing, GEP44 vs Ex4 [5] | body weight [6] | fasting blood glucose [6] | food intake [6] | insulin secretion rate (ISR) ([7]; acute exposure) | persistence of the effect on insulin secretion after washout ([7]; exposure and washout) | glucose stimulated insulin secretion (GSIS), as ISR [8] | fall in cytokine-induced OCR [9] | glucoregulation (IPGTT) [10] | insulin release in human islets [11]
N=C(N)NCCC[C@H](NC(=O)CC1(CC(=O)N2CCN(C3c4ccccc4NC(=O)c4ccccc43)CC2)CCCC1)C(=O)NCCn1c(=O)n(-c2ccccc2)n(-c2ccccc2)c1=O (stereo partly shown) [BIIE0246, reference compound] | blocked GEP44 agonism | blocked GEP44 agonism | – | – | – | – | – | – | – | – | – | – | – | – | – | – | – | – | –
H[dS]QGTFTSDLS[Lys(N3)]YLEEEAVREFIAWLKNGGPSRHYLNLVTRQRY-NH2 [GEP44] | – | – | stimulate cAMP production | stimulate cAMP production | −58 | −81.4 | −84 | > 88 | robust reduction of FI; also recorded: robust reduction of food intake | stronger reductions in blood glucose | sustained weight loss | reduced fasting blood glucose; also recorded: significant reduction in fasting blood glucose | reduced food intake | significantly increased | more sustained vs. Ex-4 | stimulated GSIS; also recorded: significantly increased | slowed the fall in cytokine-induced OCR | confirmed glucoregulation | capable of stimulating insulin release
